From ChEMBL document CHEMBL3507680, “University of Dundee, Gates Library screen for HepG2 cell viability”

Experiment: Human HepG2 cell viability assay in 384 well format
Format: toxicity, cell-based
Design: dose 125 nL, time 70.5 hour; concentration not given beside the values
Settings: HepG2 cells, read-out: Inhibition

SMILES	cytotoxicity at 70.5 h
CCC(C)[C@H](NC(=O)c1cc(F)ccc1-n1cnnn1)C(=O)OC (stereo partly drawn)	-13.4%
COc1cccc(-c2nc(C)c(C(=O)N[C@H](CO)CCSC)s2)c1	-5.73%
O=C(CCn1c(C(F)F)cc2cccnc21)NC1CC1	-5.74%
O=C1N(CC2CCCC2)CCC12CCN(c1ncc(F)cn1)CC2	-7.22%
COc1ccccc1C1CCN(C(=O)CN2C(=O)OC(C)(C)C2=O)CC1	-6.76%
O=C(NCc1ccc(CN2CCCCC2)cc1)Nc1cccnc1	-1.13%
COc1cccc(CN2CCCCCC2c2sccc2C)c1O (stereo not drawn)	1.85%
O=C(c1cnc(-c2cccs2)s1)N1CCCC(n2ccnc2)C1 (stereo not drawn)	-8.31%
Cc1ccc(C(=O)N2CCCC(n3cccn3)C2)cc1S(C)(=O)=O (stereo not drawn)	0.0611%
COC(=O)c1cccn1C1CCN(CC(=O)NC2CCCCC2)CC1	-8.68%
O=C(CCc1ccc(Br)cc1)NCCc1nnc[nH]1	-11.9%
NS(=O)(=O)CCN(CCc1cccc(F)c1)C1CCCC1	-0.787%
Cc1ccc(C(CNC(=O)Nc2cn[nH]c2)N2CCOCC2)o1 (stereo not drawn)	-1.26%
Cc1nn(C)c(C)c1C1COCCN1C(=O)Cc1cccc(F)c1 (stereo not drawn)	12.5%
Cc1nn(C)c(C)c1CNCc1ccnc(N2CCOCC2)c1	31.5%
CC(C)S(=O)(=O)N1CCC(c2cc3n(n2)[C@@H](C(F)(F)F)C[C@@H](C)N3)CC1	-7.62%
COCC(=O)N1CCN(C(=O)C2CCCCC2)[C@@H](C(=O)OC)C1	1.64%
CC(=O)NC1CCCN(C(=O)NCc2ccc(-n3cccn3)cc2)C1 (stereo not drawn)	-2.4%
Cc1cc(-c2cc(C3CCOC3)c(C#N)c(N)n2)ccc1Cl (stereo not drawn)	-10.8%
COCC(=O)N1CCC2(CC1)COC(COCc1ccccn1)C2 (stereo not drawn)	1.98%
CNC(=O)COc1ccc(CNCc2c(C)nn(C)c2N(C)C)cc1	-0.911%
CN1CCN(C(=O)c2cc3c(s2)CCN3C(=O)C2CC2)CC1	-1.1%
COc1ccc(Cc2ncc3c(n2)CN(C(=O)C(C)(C)C)C3)cc1	-1.36%

SMILES	cytotoxicity at 70.5 h
O=C(NC1CC1)c1ccc2ccc(N3CCN(CC4CC4)CC3)n2c1	6.77%
COCc1cncc2c1CCN(Cc1cccnc1)C2	-3.24%
CSC(CNS(=O)(=O)c1cnn(C)c1)c1cccc(Cl)c1 (stereo not drawn)	-6.72%
CCc1c(C)nc2cc(C3CCN(CCc4ccccc4)C3)nn2c1O (stereo not drawn)	-0.223%
CCOCCN1CCN(Cc2cccc(C(=O)N(C)C)c2)CC1CC (stereo not drawn)	-6.73%
O=C(Nc1cnn(-c2ccccc2Cl)c1)NC1CCC(O)CC1 (stereo not drawn)	23.9%
CN1CCOC(CN(C(=O)CN2CCCC2=O)c2nccs2)C1 (stereo not drawn)	9.36%
COc1cc(NC(=O)NC(C2CC2)C2CC2)ccc1N1CCOC1=O	-18%
Cc1nn(C)c(C)c1C1CCCN1C(=O)c1ccc(C(N)=O)cn1 (stereo not drawn)	4.05%
CCC(CO)(CO)NC(=O)C1CCC(=O)N(CCc2ccccc2)C1 (stereo not drawn)	-10.4%
Cc1noc(C)c1CN1CCc2ncnc(-c3ccoc3)c2CC1	15.5%
CC(=O)N1CCN(C(=O)C(C)OCC(F)(F)F)CC1 (stereo not drawn)	33.2%
O=S(=O)(NC[C@]12COC[C@H]1CN(CCc1ccccc1)C2)C1CC1	-2.87%
Cc1nn(C)c(Cl)c1C1CCCN1Cc1nnc(C2CC2)o1 (stereo not drawn)	-5.62%
CCCc1noc(C(C)S(=O)(=O)Cc2nc(C3CC3)no2)n1 (stereo not drawn)	-2.49%
CO[C@@]1(C)C[C@@H](O)C12CCN(C(=O)CCn1c(C)cccc1=O)CC2	-4.42%
Cc1cccc(C(=O)N2CCCCC2c2ccc(CN(C)C)cc2)c1 (stereo not drawn)	-8.71%
OCC(CO)Nc1cccc(C(F)(F)F)n1	1.04%
Cc1nn(C)c(C)c1CN(Cc1cccn1-c1ncccn1)C(C)C	3.54%
Cn1ccnc1CN1CCN(CCOc2ccccc2C#N)CC1	23.6%
Cc1nsc(N2CCN(CC(=O)N(C3CC3)C(C)C3CC3)CC2)n1 (stereo not drawn)	13.6%
COc1ccc(CNC2CCc3ncnn3C2)cc1OCCCC#N (stereo not drawn)	-9.41%
CC(C)(C)C(=O)CN1Cc2ccccc2NCCC1=O	0.78%

SMILES	cytotoxicity at 70.5 h
Cc1csc(S(=O)(=O)N2CCN(C)C3(CCC(=O)N(C)CC3)C2)c1 (stereo not drawn)	-11.5%
O=C(Nc1ccc(-n2ccnc2)c(F)c1)C1CCN(C(=O)C2CC2)CC1	-1.97%
Cc1cnn(C2CCCN(C(=O)CCc3c(C)noc3C)C2)c1 (stereo not drawn)	-2.08%
COCCN1CC[C@@H]2OC[C@H](C(=O)NCc3cccs3)C[C@@H]2C1	10.1%
CCS(=O)(=O)N1CCc2ncnc(OC)c2CC1	-5.9%
CC(C)CN1C(=O)CO[C@@H]2CN(C(=O)[C@H]3CCCO3)C[C@H]21	-1.2%
COC[C@H]1CC[C@H]2[C@H](CCN2S(=O)(=O)Cc2ccccc2)O1	-4.05%
CC(C)CC(=O)Nc1ccccc1Oc1ccsc1C(=O)O	-2.03%
CN(Cc1cnn(C)c1)C(=O)CCc1ccc2c(c1)OCO2	-58.4%
CC(C)n1cnnc1CN1C(=O)CCc2ccccc21	-1.8%
Cc1cccc(CCC(=O)Nc2cccnc2N2CCC(O)CC2)c1	1%
CN1C(=O)C(c2ccccc2)CC12CCN(CCN)CC2 (stereo not drawn)	-5.41%
O=C(NCC1CCS(=O)(=O)C1)N(Cc1ccccn1)C1CC1 (stereo not drawn)	-6.34%
CCC(C)NC(=O)Cn1ccc2sc(C)cc2c1=O (stereo not drawn)	-0.388%
Cc1cccc(C2CCCN(C(=O)CN3CCOC3=O)C2)c1 (stereo not drawn)	-17.6%
COCCCNC(=O)Nc1cc(-c2ccccc2C)nn1CCO	-5.71%
CC(C)CC(CNC(=O)c1cccnc1Oc1cccnc1)N(C)C (stereo not drawn)	8.64%
CC(C)N(Cc1cccnc1)C(=O)CSc1ccc(C#N)cc1	-8.92%
Cc1nnc2n1CCN(Cc1ncc(-c3ccc(Cl)cc3)o1)C2	-11%
FCCOc1cccc(NCc2c[nH]nc2-c2cccnc2)c1	-3.33%
Cc1ccc(C(=O)O)cc1CNC(=O)CN1CC(C)(C)[C@@](C)(O)C1	-6.75%
CC(NC(=O)N1CCN(CCc2ccccc2)CC1)c1nncn1C (stereo not drawn)	-11%
c1ccc2oc(N3CCn4c(nnc4C4CC4)C3)nc2c1	-2.1%

SMILES	cytotoxicity at 70.5 h
COc1ccc(CN2CCC3(CC2)CC(CC(=O)NC(C)C)CO3)cc1 (stereo not drawn)	-14.4%
Fc1cc(CNc2nncs2)ccc1Cl	-2.31%
Cc1cccc(-c2ncc(CNC(C)Cc3ncccc3C)cn2)c1 (stereo not drawn)	48.7%
Cc1nc(O)cc(CN2C[C@H](NS(=O)(=O)N(C)C)[C@@H](C3CC3)C2)n1	-3.51%
Cc1oc(-c2ccco2)nc1CC(=O)N1CCN(C2CCC2)CC1	-1.12%
Cc1occc1C(=O)NC1CCN(C(=O)Nc2cccnc2)CC1	-5.69%
CCCSc1ncc(Cl)c(C(=O)NC(CCSC)C(=O)O)n1 (stereo not drawn)	-7.81%
CCN(CC)C(=O)CCNC(=O)c1ccccc1N1CCOCC1	23.2%
O=C(O)[C@H]1C[C@H](C(=O)NC2CC2)CN(Cc2ccc(-c3cc[nH]n3)s2)C1	11.9%
COc1ncccc1C(=O)N1CCCC(n2ccnc2)C1 (stereo not drawn)	-1.13%
COCCCNC(=O)C(C)n1cc(Br)cn1 (stereo not drawn)	16.8%
O=C(c1cc2ccccc2[nH]1)N1CCCCC1Cn1cccn1 (stereo not drawn)	-1.58%
Cc1occc1C(=O)N1CCOC2(CCCC2)C1	-3.65%
Cc1ccc(CN2CCCC(c3nnc(CN4CCCCC4)n3C)C2)s1 (stereo not drawn)	4.84%
CSCC[C@@H](CO)Nc1nc(-c2ccccn2)nc2c1c(C)nn2C	-0.626%
O=S(=O)(C1CC1)N1CCc2ncnc(N3CCCC3)c2CC1	-14.9%
O=C(Cc1ccsc1)N1C[C@@H]2CN(Cc3ccoc3)CCO[C@@H]2C1	-11.4%
Cc1nc(CN2CC3(CCN(c4nccs4)C3)CC2=O)cs1 (stereo not drawn)	-1.92%
CN(C)C(=O)Cn1cc(C(=O)NCCc2ccc(Cl)cc2Cl)nn1	-0.867%
CCC(CC)CNC(=O)N(C)C(C)c1ccccn1 (stereo not drawn)	12.3%
CN1CCCC1CNC(=O)CCCOc1ccc(Cl)cc1 (stereo not drawn)	-2.04%
Cc1cccc(NC(=O)C2(n3cnnn3)CCCCC2)n1	-26.9%
Cc1ccoc1C(=O)NC1CCN(C(=O)Nc2ccccn2)CC1	-5.66%

SMILES	cytotoxicity at 70.5 h
CO[C@H]1CN(C(C)C)C[C@@H]1NC(=O)Nc1ccc2oc(C)cc2c1	26.1%
CC(=O)N1CCC(NC(=O)Cc2nc3nc(C)cc(C)n3n2)CC1	-3.83%
O=C(Cc1ccsc1)N1CCCC(c2n[nH]c3ncccc23)C1 (stereo not drawn)	-5.61%
Cn1ccc(CN2CCCC23CCN(Cc2ccccc2F)CC3)n1	-4.06%
CC1=N[C@@]2(CC[C@@H]3CN(C(=O)NCc4cccc(F)c4)C[C@@H]32)C(=O)N1	-3.91%
CC(C)c1sc(Br)nc1C(=O)NCc1ccncc1	23%
Cc1ccc(C(=O)N2Cc3c(CN(C)C)nn(C)c3C2)cc1C	4.85%
Cc1ccc(C(=O)N2CCN(Cc3nc(C(C)C)no3)CC2)c(=O)[nH]1	1.28%
CCC[C@@H]1CN(c2ncnc3sccc23)C[C@H]1NS(C)(=O)=O	-4.58%
CCn1ccnc1CN1CCN(C(C)C(=O)NCC(F)(F)F)CC1 (stereo not drawn)	10%
CC(C)(CO)NCc1ccc(OCc2ccc3c(c2)OCCO3)cc1	-2.91%
CN(C)CCN1CCC2(CCCN(Cc3cccn3C)C2)C1=O (stereo not drawn)	-11.1%
Cc1ccc(F)c2c1CCCN2CC(=O)NC1CCS(=O)(=O)C1 (stereo not drawn)	-4.5%
Cn1ncc2c1C(COCC1CC1)N(C(=O)c1ccncn1)CC2 (stereo not drawn)	5.78%
CN(C)CC1(O)CCN(S(=O)(=O)c2cccc(F)c2)C1 (stereo not drawn)	-4.11%
N#Cc1cccc(OCc2ccoc2C(=O)N2CCCCC2)c1	3.19%
O=C(NCCC1CN(Cc2c[nH]cn2)CCO1)Nc1ccccc1 (stereo not drawn)	-8.29%
Cc1ccsc1C(=O)N1CC[C@@H](N(C)C)[C@@H]1Cc1cnn(C)c1	-11.2%
CN(CCn1ccnc1-c1ccccn1)S(C)(=O)=O	11.9%
O=C(CCNc1ncccn1)N1CCN(c2nccs2)CC1	-16.3%
Cc1cccc(CS(=O)(=O)CC(=O)NCCCOC(C)C)c1	16.8%
